# Assay results from patent publication US4740601A, “Imidazole derivatives having antimicrobial activities” (SS Pharmaceutical Co., Ltd., priority 1985, dated 1988).
# System: Bacillus subtilis ATCC 6633
# Assay: antimicrobial activity, MIC
# Assay type: cell-based
# Conditions: Bacillus subtilis, ATCC6633, Bacillus subtilis ATCC 6633; read-out: MIC
row,Structure (SMILES),MIC [µg/mL]
1,"CCCCCSC=C(c1ccccc1OCC)n1ccnc1 (single isomer, unassigned) [Compound 49]",3.12
2,"CCCCSC=C(c1ccccc1OCCC)n1ccnc1 (single isomer, unassigned) [Compound 46]",6.25

# System: Staphylococcus aureus FDA 209P
# Assay: antimicrobial activity, MIC
# Assay type: cell-based
# Conditions: Staphylococcus aureus, FDA209P, read-out: MIC
row,Structure (SMILES),MIC [µg/mL]
1,"CCCCCSC=C(c1ccccc1OCC)n1ccnc1 (single isomer, unassigned) [Compound 49]",12.5
2,"CCCCSC=C(c1ccccc1OCCC)n1ccnc1 (single isomer, unassigned) [Compound 46]",12.5

# System: Staphylococcus aureus Terajima
# Assay: antimicrobial activity, MIC
# Assay type: cell-based
# Conditions: Staphylococcus aureus, read-out: MIC
row,Structure (SMILES),MIC [µg/mL]
1,"CCCCCSC=C(c1ccccc1OCC)n1ccnc1 (single isomer, unassigned) [Compound 49]",6.25
2,"CCCCSC=C(c1ccccc1OCCC)n1ccnc1 (single isomer, unassigned) [Compound 46]",12.5

# System: Staphylococcus aureus Smith
# Assay: antimicrobial activity, MIC
# Assay type: cell-based
# Conditions: Staphylococcus aureus, read-out: MIC
row,Structure (SMILES),MIC [µg/mL]
1,"CCCCCSC=C(c1ccccc1OCC)n1ccnc1 (single isomer, unassigned) [Compound 49]",12.5
2,"CCCCSC=C(c1ccccc1OCCC)n1ccnc1 (single isomer, unassigned) [Compound 46]",12.5

# System: Staphylococcus epidermidis ATCC 12228
# Assay: antimicrobial activity, MIC
# Assay type: cell-based
# Conditions: Staphylococcus epidermidis, ATCC12228, Staphylococcus epidermidis ATCC 12228; read-out: MIC
row,Structure (SMILES),MIC [µg/mL]
1,"CCCCCSC=C(c1ccccc1OCC)n1ccnc1 (single isomer, unassigned) [Compound 49]",3.12
2,"CCCCSC=C(c1ccccc1OCCC)n1ccnc1 (single isomer, unassigned) [Compound 46]",6.25

# System: Sarcina lutea ATCC 9341
# Assay: antimicrobial activity, MIC
# Assay type: cell-based
# Conditions: Micrococcus luteus, ATCC9341, Sarcina lutea ATCC 9341; read-out: MIC
row,Structure (SMILES),MIC [µg/mL]
1,"CCCCCSC=C(c1ccccc1OCC)n1ccnc1 (single isomer, unassigned) [Compound 49]",3.12
2,"CCCCSC=C(c1ccccc1OCCC)n1ccnc1 (single isomer, unassigned) [Compound 46]",6.25

# System: Streptococcus faecalis IFO 12964
# Assay: antimicrobial activity, MIC
# Assay type: cell-based
# Conditions: Enterococcus faecalis, IFO12964, Streptococcus faecalis IFO 12964; read-out: MIC
row,Structure (SMILES),MIC [µg/mL]
1,"CCCCCSC=C(c1ccccc1OCC)n1ccnc1 (single isomer, unassigned) [Compound 49]",6.25
2,"CCCCSC=C(c1ccccc1OCCC)n1ccnc1 (single isomer, unassigned) [Compound 46]",12.5

# System: Micrococcus lysodeixticus IFO 3333
# Assay: antimicrobial activity, MIC
# Assay type: cell-based
# Conditions: Micrococcus, IFO3333, Micrococcus lysodeixticus IFO 3333; read-out: MIC
row,Structure (SMILES),MIC [µg/mL]
1,"CCCCCSC=C(c1ccccc1OCC)n1ccnc1 (single isomer, unassigned) [Compound 49]",1.56
2,"CCCCSC=C(c1ccccc1OCCC)n1ccnc1 (single isomer, unassigned) [Compound 46]",3.12

# System: Candida albicans NHL 4019
# Assay: antimicrobial activity, MIC
# Assay type: cell-based
# Conditions: Candida albicans, NHL4019, Candida albicans NHL 4019; read-out: MIC
row,Structure (SMILES),MIC [µg/mL]
1,"CCCCCSC=C(c1ccccc1OCC)n1ccnc1 (single isomer, unassigned) [Compound 49]",25
2,"CCCCSC=C(c1ccccc1OCCC)n1ccnc1 (single isomer, unassigned) [Compound 46]",25

# System: Candida albicans Yu-1200
# Assay: antimicrobial activity, MIC
# Assay type: cell-based
# Conditions: YU1200, read-out: MIC
row,Structure (SMILES),MIC [µg/mL]
1,"CCCCCSC=C(c1ccccc1OCC)n1ccnc1 (single isomer, unassigned) [Compound 49]",25
2,"CCCCSC=C(c1ccccc1OCCC)n1ccnc1 (single isomer, unassigned) [Compound 46]",50

# System: Saccharomyces cerevisiae ATCC 9763
# Assay: antimicrobial activity, MIC
# Assay type: cell-based
# Conditions: Saccharomyces cerevisiae, ATCC9763, Saccharomyces cerevisiae ATCC 9763; read-out: MIC
row,Structure (SMILES),MIC [µg/mL]
1,"CCCCCSC=C(c1ccccc1OCC)n1ccnc1 (single isomer, unassigned) [Compound 49]",50
2,"CCCCSC=C(c1ccccc1OCCC)n1ccnc1 (single isomer, unassigned) [Compound 46]",< 0.2

# System: Saccharomyces ruxii 6507
# Assay: antimicrobial activity, MIC
# Assay type: cell-based
# Conditions: Saccharomyces ruxii 6507; read-out: MIC
row,Structure (SMILES),MIC [µg/mL]
1,"CCCCCSC=C(c1ccccc1OCC)n1ccnc1 (single isomer, unassigned) [Compound 49]",< 0.2
2,"CCCCSC=C(c1ccccc1OCCC)n1ccnc1 (single isomer, unassigned) [Compound 46]",0.78

# System: Aspergillus niger ATCC 9642
# Assay: antimicrobial activity, MIC
# Assay type: cell-based
# Conditions: Aspergillus niger, ATCC9642, Aspergillus niger ATCC 9642; read-out: MIC
row,Structure (SMILES),MIC [µg/mL]
1,"CCCCCSC=C(c1ccccc1OCC)n1ccnc1 (single isomer, unassigned) [Compound 49]",< 0.2
2,"CCCCSC=C(c1ccccc1OCCC)n1ccnc1 (single isomer, unassigned) [Compound 46]",1.56

# System: Penicillium chrysogenum ATCC 6010
# Assay: antimicrobial activity, MIC
# Assay type: cell-based
# Conditions: Penicillium chrysogenum, ATCC6010, Penicillium chrysogenum ATCC 6010; read-out: MIC
row,Structure (SMILES),MIC [µg/mL]
1,"CCCCCSC=C(c1ccccc1OCC)n1ccnc1 (single isomer, unassigned) [Compound 49]",6.25
2,"CCCCSC=C(c1ccccc1OCCC)n1ccnc1 (single isomer, unassigned) [Compound 46]",1.56

# System: Trichophyton mentagrophytes QM 248
# Assay: antimicrobial activity, MIC
# Assay type: cell-based
# Conditions: Trichophyton mentagrophytes, QM248, Trichophyton mentagrophytes QM 248; read-out: MIC
row,Structure (SMILES),MIC [µg/mL]
1,"CCCCCSC=C(c1ccccc1OCC)n1ccnc1 (single isomer, unassigned) [Compound 49]",< 0.2
2,"CCCCSC=C(c1ccccc1OCCC)n1ccnc1 (single isomer, unassigned) [Compound 46]",< 0.2

# System: Trichophyton mentagrophytes IFO 5812
# Assay: antimicrobial activity, MIC
# Assay type: cell-based
# Conditions: Trichophyton mentagrophytes, IFO5812, Trichophyton mentagrophytes IFO 5812; read-out: MIC
row,Structure (SMILES),MIC [µg/mL]
1,"CCCCCSC=C(c1ccccc1OCC)n1ccnc1 (single isomer, unassigned) [Compound 49]",< 0.2
2,"CCCCSC=C(c1ccccc1OCCC)n1ccnc1 (single isomer, unassigned) [Compound 46]",< 0.2

# System: Trichophyton tonsurans IFO 5928
# Assay: antimicrobial activity, MIC
# Assay type: cell-based
# Conditions: Trichophyton tonsurans, IFO5928, Trichophyton tonsurans IFO 5928; read-out: MIC
row,Structure (SMILES),MIC [µg/mL]
1,"CCCCCSC=C(c1ccccc1OCC)n1ccnc1 (single isomer, unassigned) [Compound 49]",< 0.2
2,"CCCCSC=C(c1ccccc1OCCC)n1ccnc1 (single isomer, unassigned) [Compound 46]",< 0.2

# System: Trichophyton rubrum NHL J
# Assay: antimicrobial activity, MIC
# Assay type: cell-based
# Conditions: Trichophyton rubrum, Trichophyton rubrum NHL J; read-out: MIC
row,Structure (SMILES),MIC [µg/mL]
1,"CCCCCSC=C(c1ccccc1OCC)n1ccnc1 (single isomer, unassigned) [Compound 49]",< 0.2
2,"CCCCSC=C(c1ccccc1OCCC)n1ccnc1 (single isomer, unassigned) [Compound 46]",< 0.2

# System: Microsporum gypseum IFO 8231
# Assay: antimicrobial activity, MIC
# Assay type: cell-based
# Conditions: Nannizzia gypsea, IFO8231, Microsporum gypseum IFO 8231; read-out: MIC
row,Structure (SMILES),MIC [µg/mL]
1,"CCCCCSC=C(c1ccccc1OCC)n1ccnc1 (single isomer, unassigned) [Compound 49]",< 0.2
2,"CCCCSC=C(c1ccccc1OCCC)n1ccnc1 (single isomer, unassigned) [Compound 46]",< 0.2

# System: Microsporum audounii IFO 6074
# Assay: antimicrobial activity, MIC
# Assay type: cell-based
# Conditions: Microsporum, IFO6074, Microsporum audounii IFO 6074; read-out: MIC
row,Structure (SMILES),MIC [µg/mL]
1,"CCCCCSC=C(c1ccccc1OCC)n1ccnc1 (single isomer, unassigned) [Compound 49]",< 0.2
2,"CCCCSC=C(c1ccccc1OCCC)n1ccnc1 (single isomer, unassigned) [Compound 46]",< 0.2

# System: Microsporum cookei IFO 8303
# Assay: antimicrobial activity, MIC
# Assay type: cell-based
# Conditions: Paraphyton cookei, IFO8303, Microsporum cookei IFO 8303; read-out: MIC
row,Structure (SMILES),MIC [µg/mL]
1,"CCCCCSC=C(c1ccccc1OCC)n1ccnc1 (single isomer, unassigned) [Compound 49]",1.56
2,"CCCCSC=C(c1ccccc1OCCC)n1ccnc1 (single isomer, unassigned) [Compound 46]",1.56

# System: Epidermophyton floccosum IFO 9045
# Assay: antimicrobial activity, MIC
# Assay type: cell-based
# Conditions: Epidermophyton floccosum, IFO9045, Epidermophyton floccosum IFO 9045; read-out: MIC
row,Structure (SMILES),MIC [µg/mL]
1,"CCCCCSC=C(c1ccccc1OCC)n1ccnc1 (single isomer, unassigned) [Compound 49]",0.78
2,"CCCCSC=C(c1ccccc1OCCC)n1ccnc1 (single isomer, unassigned) [Compound 46]",1.56

# System: Aspergillus oryzae IMF 4014
# Assay: antimicrobial activity, MIC
# Assay type: cell-based
# Conditions: Aspergillus oryzae, IMF4014, Aspergillus oryzae IMF 4014; read-out: MIC
row,Structure (SMILES),MIC [µg/mL]
1,"CCCCCSC=C(c1ccccc1OCC)n1ccnc1 (single isomer, unassigned) [Compound 49]",0.78
2,"CCCCSC=C(c1ccccc1OCCC)n1ccnc1 (single isomer, unassigned) [Compound 46]",0.78

# System: Cladosporium fulvum IAM 5006
# Assay: antimicrobial activity, MIC
# Assay type: cell-based
# Conditions: Fulvia fulva, IAM5006, Cladosporium fulvum IAM 5006; read-out: MIC
row,Structure (SMILES),MIC [µg/mL]
1,"CCCCCSC=C(c1ccccc1OCC)n1ccnc1 (single isomer, unassigned) [Compound 49]",25
2,"CCCCSC=C(c1ccccc1OCCC)n1ccnc1 (single isomer, unassigned) [Compound 46]",12.5

# System: Fusarium moniliforme IAM 5062
# Assay: antimicrobial activity, MIC
# Assay type: cell-based
# Conditions: Fusarium verticillioides, IAM5062, Fusarium moniliforme IAM 5062; read-out: MIC
row,Structure (SMILES),MIC [µg/mL]
1,"CCCCCSC=C(c1ccccc1OCC)n1ccnc1 (single isomer, unassigned) [Compound 49]",1.56
2,"CCCCSC=C(c1ccccc1OCCC)n1ccnc1 (single isomer, unassigned) [Compound 46]",1.56

# System: Helminthosporium sesamum IAM 5012
# Assay: antimicrobial activity, MIC
# Assay type: cell-based
# Conditions: Helminthosporium, IAM5012, Helminthosporium sesamum IAM 5012; read-out: MIC
row,Structure (SMILES),MIC [µg/mL]
1,"CCCCCSC=C(c1ccccc1OCC)n1ccnc1 (single isomer, unassigned) [Compound 49]",0.39
2,"CCCCSC=C(c1ccccc1OCCC)n1ccnc1 (single isomer, unassigned) [Compound 46]",1.56

# System: Pyricularia oryzae IAM 5016
# Assay: microbe, parasite or virus in culture
# Assay type: cell-based
# Conditions: Pyricularia oryzae, IAM5016, Pyricularia oryzae IAM 5016
row,Structure (SMILES),MIC [µg/mL]
1,"CCCCCSC=C(c1ccccc1OCC)n1ccnc1 (single isomer, unassigned) [Compound 49]",< 0.2
2,"CCCCSC=C(c1ccccc1OCCC)n1ccnc1 (single isomer, unassigned) [Compound 46]",< 0.2

# System: Debaryomyces kloeckeri IFO 0015
# Assay: antimicrobial activity, MIC
# Assay type: cell-based
# Conditions: IFO0015, read-out: MIC
row,Structure (SMILES),MIC [µg/mL]
1,"CCCCCSC=C(c1ccccc1OCC)n1ccnc1 (single isomer, unassigned) [Compound 49]",12.5
2,"CCCCSC=C(c1ccccc1OCCC)n1ccnc1 (single isomer, unassigned) [Compound 46]",12.5

# System: Gibberella fujikuroi IAM 8046
# Assay: antimicrobial activity, MIC
# Assay type: cell-based
# Conditions: Fusarium fujikuroi, IAM8046, Gibberella fujikuroi IAM 8046; read-out: MIC
row,Structure (SMILES),MIC [µg/mL]
1,"CCCCCSC=C(c1ccccc1OCC)n1ccnc1 (single isomer, unassigned) [Compound 49]",0.39
2,"CCCCSC=C(c1ccccc1OCCC)n1ccnc1 (single isomer, unassigned) [Compound 46]",0.39
